Numbered stars: 1 amine (or outer) side, 2 acyl side, 3 side chain; on linkers, the order of the positions; unused ones are H or OH. Bridge positions count the residues as written; N and C are the ends. Square brackets hold non-standard residues; d marks the D form. Peptide text beside a SMILES is read from it. * marks the point of attachment. hPhe(3,5-F2-4-CF3) = N[C@@H](CCc1cc(F)c(C(F)(F)F)c(F)c1)C(=O)O; hPhe(3-Cl-4-CF3) = N[C@@H](CCc1ccc(C(F)(F)F)c(Cl)c1)C(=O)O; hPhe(3-F,4-CF3) = N[C@@H](CCc1ccc(C(F)(F)F)c(F)c1)C(=O)O; hPhe(3-OMe-4-CF3) = COc1cc(CC[C@H](N)C(=O)O)ccc1C(F)(F)F; hPhe(4-CF3) = N[C@@H](CCc1ccc(C(F)(F)F)cc1)C(=O)O; NMePhe(4-Cl) = CN[C@@H](Cc1ccc(Cl)cc1)C(=O)O; NMePhe(4-Me) = CN[C@@H](Cc1ccc(C)cc1)C(=O)O; NMeNle(6-CHF2) = CN[C@@H](CCCCC(F)F)C(=O)O; NMedβ3hAla = C[C@H](CC(=O)[*:2])N(C)[*:1]; NMeGly(cPent) = CN[C@H](C(=O)O)C1CCCC1; Phe(3-I) = N[C@@H](Cc1cccc(I)c1)C(=O)O; NMeCha = CN[C@@H](CC1CCCCC1)C(=O)O; Hyp = O=C(O)[C@@H]1C[C@@H](O)CN1; NMeChg = CN[C@H](C(=O)O)C1CCCCC1; NMeF = CN[C@@H](Cc1ccccc1)C(=O)O; NMeI = CC[C@H](C)[C@H](NC)C(=O)O; NMeD = CN[C@@H](CC(=O)O)C(=O)O; CH2CONHtBu = CC(C)(C)NC(=O)C*; NMeL = CN[C@@H](CC(C)C)C(=O)O; NMeV = CN[C@H](C(=O)O)C(C)C; d(β3hA) = C[C@@H](N)CC(=O)O; NMeS = CN[C@@H](CO)C(=O)O; NMeA = CN[C@@H](C)C(=O)O; Piperidide = C1CCN(*)CC1; Pyrrolidide = C1CCN(*)C1; Ac5c = NC1(C(=O)O)CCCC1; Aze = O=C(O)[C@@H]1CCN1; Sar = CNCC(=O)O
What follows are compounds tested against protein-protein interaction between Kras and SOS1 (biotin-tagged human Kras loaded with GDP, His-tagged human SOS1) (Homo sapiens (Human), UniProt P01116, G12D) (assay: Protein-protein interaction inhibition between Kras and SOS1 (KrasG12D-SOS PPI) using AlphaScreen). Details: AlphaScreen; biotin-tagged human Kras loaded with GDP, His-tagged human SOS1; read-out: KRAS G12D-SOS PPI IC50.
Format: biochemical
CC[C@H](C)[C@@H]1NC(=O)[C@H](CC(C)C)N(C)C(=O)C[C@@H](C(=O)N2CCCC2)N(C)C(=O)[C@H]([C@@H](C)CC)N(C)C(=O)C2(CCCC2)NC(=O)[C@@H]2CCCN2C(=O)[C@H](CCc2ccc(C(F)(F)F)c(F)c2)NC(=O)CN(C)C(=O)[C@H](Cc2ccc(C)cc2)N(C)C(=O)[C@@H]2CCN2C(=O)[C@H](C)N(C)C1=O [Compound 44] ([NMeL]I[NMeA][Aze][NMePhe(4-Me)][Sar][hPhe(3-F,4-CF3)]P[Ac5c][NMeI][NMeD]-Pyrrolidide; lactam N-11) showed an IC50 of 1.1 nM.
For CC[C@H](C)[C@@H]1NC(=O)[C@H](CC(C)C)N(C)C(=O)C[C@@H](C)N(C)C(=O)[C@H](C2CCCC2)N(C)C(=O)C2(CCCC2)NC(=O)[C@@H]2CCCN2C(=O)[C@H](CCc2ccc(C(F)(F)F)c(F)c2)NC(=O)CN(C)C(=O)[C@H](CC2CCCCC2)N(C)C(=O)[C@@H]2CCN2C(=O)[C@H](C)N(C)C1=O [Compound 49] (cyclo([Ac5c][NMeGly(cPent)][NMedβ3hAla][NMeL]I[NMeA][Aze][NMeCha][Sar][hPhe(3-F,4-CF3)]P)), the IC50 was 12 nM.
Work on CC[C@H](C)[C@@H]1NC(=O)[C@H](C)N(C)C(=O)C[C@@H](C)NC(=O)[C@H](C(C)C)N(C)C(=O)[C@H](Cc2ccccc2)N(C)C(=O)[C@H](CC(C)C)N(C)C(=O)[C@H](CCc2ccc(C(F)(F)F)cc2)NC(=O)CN(C)C(=O)[C@H](Cc2ccc(Cl)cc2)N(C)C(=O)CN(C)C(=O)CN(C)C1=O [Compound 51] (cyclo(I[Sar][Sar][NMePhe(4-Cl)][Sar][hPhe(4-CF3)][NMeL][NMeF][NMeV][d(β3hA)][NMeA])) yielded an IC50 of 90 nM.
With CC[C@H](C)[C@@H]1NC(=O)[C@H](C2CCCCC2)N(C)C(=O)C[C@@H](C(=O)N2CCCCC2)N(C)C(=O)[C@H](C(C)C)N(C)C(=O)C2(CCCC2)NC(=O)[C@@H]2CCCN2C(=O)[C@H](CCc2ccc(C(F)(F)F)c(Cl)c2)NC(=O)CN(C)C(=O)[C@H](CC2CCCCC2)N(C)C(=O)[C@@H]2CCN2C(=O)[C@H](C)N(C)C1=O [Compound 58] ([NMeChg]I[NMeA][Aze][NMeCha][Sar][hPhe(3-Cl-4-CF3)]P[Ac5c][NMeV][NMeD]-Piperidide; lactam N-11) the IC50 was 28 nM.
CC[C@H](C)[C@@H]1NC(=O)[C@H](C)N(C)C(=O)C[C@@H](C)NC(=O)[C@H](CC(C)C)N(C)C(=O)[C@H](Cc2ccccc2)N(C)C(=O)[C@H](CC(C)C)NC(=O)[C@H](Cc2cccc(I)c2)NC(=O)CN(C)C(=O)[C@H](Cc2ccc(Cl)cc2)N(C)C(=O)CN(C)C(=O)CN(C)C1=O [Compound 65] (cyclo(I[Sar][Sar][NMePhe(4-Cl)][Sar][Phe(3-I)]L[NMeF][NMeL][d(β3hA)][NMeA])) gave an IC50 of 240 nM.
For CC[C@H](C)[C@@H]1NC(=O)[C@H](CC(C)C)N(C)C(=O)C[C@@H](C)NC(=O)[C@H](C(C)C)N(C)C(=O)C2(CCCC2)NC(=O)[C@@H]2CCCN2C(=O)[C@H](CCc2ccc(C(F)(F)F)c(Cl)c2)NC(=O)CN(C)C(=O)[C@H](CC2CCCCC2)N(C)C(=O)[C@@H]2CCN2C(=O)[C@H](COCC(=O)NC(C)(C)C)N(C)C1=O [Compound 70] (cyclo([Ac5c][NMeV][d(β3hA)][NMeL]I[NMeS](CH2CONHtBu)[Aze][NMeCha][Sar][hPhe(3-Cl-4-CF3)]P)), the IC50 was 160 nM.
CCO[C@@H]1C[C@H]2C(=O)NC3(CCCC3)C(=O)N(C)[C@@H](C3CCCC3)C(=O)N(C)[C@H](C)CC(=O)N(C)[C@@H](CC(C)C)C(=O)N[C@@H]([C@@H](C)CC)C(=O)N(C)CC(=O)N(C)CC(=O)N(C)[C@@H](CC3CCCCC3)C(=O)N(C)CC(=O)N[C@@H](CCc3cc(F)c(C(F)(F)F)c(F)c3)C(=O)N2C1 [Compound 74] (cyclo([Ac5c][NMeGly(cPent)][NMedβ3hAla][NMeL]I[Sar][Sar][NMeCha][Sar][hPhe(3,5-F2-4-CF3)][Hyp](Et))) gave an IC50 of 7.2 nM.
CC[C@H](C)[C@@H]1NC(=O)[C@H](CC(C)C)N(C)C(=O)C[C@@H](C(=O)N2CCCCC2)N(C)C(=O)[C@H](C(C)C)N(C)C(=O)C2(CCCC2)NC(=O)[C@@H]2CCCN2C(=O)[C@H](CCc2ccc(C(F)(F)F)c(Cl)c2)NC(=O)CN(C)C(=O)[C@H](CCCCC(F)F)N(C)C(=O)[C@@H]2CCN2C(=O)[C@H](C)N(C)C1=O [Compound 78] ([NMeL]I[NMeA][Aze][NMeNle(6-CHF2)][Sar][hPhe(3-Cl-4-CF3)]P[Ac5c][NMeV][NMeD]-Piperidide; lactam N-11) gave an IC50 of 1.6 nM.

The compounds below were run on Human pancreatic cancer cell line AsPC-1 (G12D mutation Kras) (assay: AsPC-1 cell growth inhibition (AsPC-1 CGI)). Details: read-out: AsPC-1 cell growth inhibition, 50% growth inhibitory concentration (IC50 value); 96 hours, CellTiter-Glo, values classified in ranges.
Format: cell-based
Description: Test compounds were serially dilated with dimethyl sulfoxide, and 200 nL was then dispensed to a U-bottom 96-well plate using Labcyte Echo. […] The cell suspension was dispensed to a. plate containing a test compound at 100 μL per well and incubated at 37° C. in a 5% carbon dioxide gas incubator. 96 hours later, 80 μL of CellTiter-Glo (Promega) was added to each well and fluorescence was measured.
CC[C@H](C)[C@@H]1NC(=O)[C@H](CC(C)C)N(C)C(=O)C[C@@H](C(=O)N2CCCCC2)N(C)C(=O)[C@H](C2CCCC2)N(C)C(=O)C2(CCCC2)NC(=O)[C@@H]2CCCN2C(=O)[C@H](CCc2ccc(C(F)(F)F)c(OC)c2)NC(=O)CN(C)C(=O)[C@H](CC2CCCCC2)N(C)C(=O)[C@@H]2CCN2C(=O)[C@H](C)N(C)C1=O [Compound 2080] ([NMeL]I[NMeA][Aze][NMeCha][Sar][hPhe(3-OMe-4-CF3)]P[Ac5c][NMeGly(cPent)][NMeD]-Piperidide; lactam N-11 (inferred); C-terminus assumed) gave an IC50 of no more than 20 nM.

Reference: patent US20240148821A1, “PHARMACEUTICAL USE OF CYCLIC PEPTIDE COMPOUND” (CHUGAI SEIYAKU KABUSHIKI KAISHA, priority 2021, published 2024)
